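48-hour exposure; five concentrations; linearly interpolated endpoints. At the GI50, growth is halved.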 Activity calls are given as the source filed them. No stated cut-off is given here; in the data, active = GI50 up to about 1.1 µM and inactive = higher.

Some test systems named below: ACHN; HL-60; HOP-62; K562; LOX IMVI; M14; NCI-H23; OVCAR-3; RXF 393; SF-295; SF-539; SK-MEL-28; SK-MEL-2; SK-OV-3; SN12C; SNB-19; SW-620; TK-10; UACC-257; Malme-3M.
Common to all, as to experiment: NCI-60 cell line screen, 48 h

With `S=C(N/N=C/c1ccccc1)NC12CC3CC(CC(C3)C1)C2`, the GI50 is 51.8 µM (inactive) with ACHN; 31.2 µM (inactive) with HL-60; > 100 µM (inactive) in the assay on HOP-62; 9.27 µM (inactive) in the assay on K562; 22.8 µM (inactive) in the assay with LOX IMVI; 46.6 µM (inactive) in the assay on M14. Further, the GI50 in the assay with NCI-H23 was 55.8 µM (inactive); with OVCAR-3, 27.2 µM (inactive); in the assay with RXF 393, 23.7 µM (inactive); with SF-295, 41 µM (inactive); in the assay with SF-539, 12.4 µM (inactive); with SK-MEL-28 it was 59.3 µM (inactive). Further, the GI50 with SK-MEL-2 was 40 µM (inactive); in the assay on SK-OV-3 it was > 100 µM (inactive); in the assay with SN12C, 17.7 µM (inactive); with SNB-19, > 100 µM (inactive); in the assay on SW-620 it was 30.5 µM (inactive); in the assay with TK-10 it was > 100 µM (inactive). Moreover, in the assay on UACC-257, the GI50 was 26.1 µM (inactive).

On to `CC1=C(C(=O)NCCc2ccccc2)CC(C(=O)NCCc2ccccc2)=C(C)N1`, for which the GI50 in the assay on ACHN is 55.3 µM (inactive); with HL-60, 31.7 µM (inactive); in the assay with HOP-62, 75.3 µM (inactive); in the assay on K562, 44.3 µM (inactive); in the assay with LOX IMVI it was > 100 µM (inactive); in the assay with M14 it was > 100 µM (inactive). For the same molecule, the GI50 with NCI-H23 is > 100 µM (inactive); with OVCAR-3, 88.3 µM (inactive); in the assay on RXF 393, 35.8 µM (inactive); in the assay on SF-295, > 100 µM (inactive); in the assay with SF-539, > 100 µM (inactive); in the assay with SK-MEL-2, > 100 µM (inactive). For the same molecule, the GI50 was > 100 µM (inactive) in the assay on SK-OV-3; > 100 µM (inactive) in the assay on SN12C; 6.1 µM (inactive) in the assay on SNB-19; > 100 µM (inactive) in the assay on SW-620; > 100 µM (inactive) in the assay on TK-10; > 100 µM (inactive) with UACC-257.

For `CO/C=C(/C(=O)OC)c1ccccc1Oc1c(F)c(F)c(F)c(F)c1F`, the GI50 is 50.4 µM (inactive) in the assay with ACHN; < 0.01 µM (active) with HL-60; 53.6 µM (inactive) with HOP-62; 38.7 µM (inactive) with K562; 32.4 µM (inactive) with LOX IMVI; 35.3 µM (inactive) in the assay on M14. The GI50 with NCI-H23 was 37.7 µM (inactive); in the assay with OVCAR-3, 21.3 µM (inactive); with RXF 393, 20.7 µM (inactive); in the assay on SF-295, 54.5 µM (inactive); with SF-539, 56 µM (inactive); in the assay with SK-MEL-28, 55.7 µM (inactive). The GI50 in the assay with SK-MEL-2 was 24.2 µM (inactive); in the assay on SK-OV-3, 47.9 µM (inactive); in the assay with SN12C, 42.9 µM (inactive); in the assay on SNB-19, 57.4 µM (inactive); in the assay on TK-10 it was 28.5 µM (inactive); in the assay on UACC-257, 24.9 µM (inactive).

For `CCCn1c(=O)c2ccccc2[n+]2c(-c3ccc([N+](=O)[O-])cc3)csc12`, the GI50 in the assay with ACHN is 35.9 µM (inactive); in the assay with HL-60, 24.4 µM (inactive); in the assay with HOP-62, 18.9 µM (inactive); in the assay on K562, 20.9 µM (inactive); with LOX IMVI it was 22.1 µM (inactive); in the assay with M14 it was 35.6 µM (inactive). Also, the GI50 in the assay on NCI-H23 is 31 µM (inactive); in the assay on RXF 393 it was 18.1 µM (inactive); with SF-295, 30.8 µM (inactive); in the assay with SF-539, 17.2 µM (inactive); in the assay on SK-MEL-2 it was 35.7 µM (inactive); with SK-OV-3, 36.9 µM (inactive). Further, the GI50 was 41.3 µM (inactive) in the assay with SN12C; 25.7 µM (inactive) in the assay on SNB-19; 43.9 µM (inactive) with SW-620; > 10 µM (inactive) with TK-10; 27.7 µM (inactive) in the assay with UACC-257.

For `COC(=O)[C@H](Cc1ccccc1)NC(=O)/C(=C/C(C)C)NC(=O)[C@H](CCSC)NC=O`, the GI50 in the assay on ACHN, in the assay on HL-60, in the assay with HOP-62, in the assay on K562, in the assay on LOX IMVI and with M14 was > 100 µM (inactive) throughout. For the same molecule, the GI50 in the assay with NCI-H23, with OVCAR-3, with RXF 393, in the assay on SF-295, with SF-539 and in the assay on SK-MEL-28 was > 100 µM (inactive) throughout. Also, the GI50 in the assay with SK-MEL-2, with SK-OV-3, in the assay with SN12C, with SNB-19, in the assay with SW-620 and in the assay with TK-10 was > 100 µM (inactive) in each case. In addition, in the assay with UACC-257, the GI50 is > 100 µM (inactive).

Regarding `CN(C)CC1(Cc2ccccc2)CC/C(=C\c2ccccc2)C1=O` (centres undefined), the GI50 in the assay with ACHN was 50.7 µM (inactive); in the assay on HL-60, 20.4 µM (inactive); in the assay on HOP-62, > 100 µM (inactive); in the assay on K562, 29.4 µM (inactive); in the assay on LOX IMVI, 29.6 µM (inactive); in the assay on M14, 49.3 µM (inactive). The GI50 in the assay on Malme-3M was 44 µM (inactive); in the assay with NCI-H23 it was 44.8 µM (inactive); with OVCAR-3, 31.4 µM (inactive); in the assay on RXF 393 it was 35.6 µM (inactive); in the assay on SF-295 it was 62.2 µM (inactive); in the assay on SF-539, 24.9 µM (inactive). Moreover, the GI50 in the assay on SK-MEL-28 is > 100 µM (inactive); in the assay on SK-MEL-2 it was 50.9 µM (inactive); with SN12C, 69.2 µM (inactive); in the assay with SNB-19, 22.2 µM (inactive); in the assay with SW-620 it was 20.8 µM (inactive); in the assay on TK-10 it was > 100 µM (inactive). The GI50 in the assay on UACC-257 was 32.4 µM (inactive).

As to `CC1C[C@]2(C)C(=S)Nc3ccccc3[C@@H]2Nc2ccccc21` (some centres undefined), the GI50 in the assay on ACHN is 19.3 µM (inactive); in the assay with HL-60, 33.5 µM (inactive); in the assay on HOP-62 it was 17.7 µM (inactive); with K562 it was 26.6 µM (inactive); in the assay on LOX IMVI it was 13.4 µM (inactive); with M14, 17.4 µM (inactive). Also, the GI50 in the assay with Malme-3M is 15.9 µM (inactive); in the assay with NCI-H23, 15.2 µM (inactive); in the assay with OVCAR-3, 15.1 µM (inactive); with RXF 393, 19 µM (inactive); in the assay with SF-295, 18.5 µM (inactive); in the assay on SF-539 it was 19.3 µM (inactive). In addition, the GI50 in the assay with SK-MEL-28 is 0.39 µM (active); with SK-MEL-2 it was 13 µM (inactive); in the assay with SN12C, 17.9 µM (inactive); in the assay with SNB-19 it was 21.7 µM (inactive); in the assay with SW-620, 25.9 µM (inactive); in the assay on TK-10, 19 µM (inactive). For the same molecule, the GI50 with UACC-257 was 15.6 µM (inactive).

For `C/C(=N\NC(=S)Nc1ccc([N+](=O)[O-])cc1S(=O)(=O)O)c1ccccn1`, the GI50 with ACHN was 62.4 µM (inactive); in the assay with HL-60, 31.7 µM (inactive); with HOP-62 it was 76.9 µM (inactive); in the assay with K562, 41.1 µM (inactive); in the assay on LOX IMVI it was 53.2 µM (inactive); with M14 it was 64 µM (inactive). The GI50 in the assay on Malme-3M was 95.9 µM (inactive); in the assay with NCI-H23 it was 69.3 µM (inactive); in the assay with OVCAR-3, 26.6 µM (inactive); in the assay with RXF 393, 38.8 µM (inactive); in the assay on SF-295 it was > 100 µM (inactive); in the assay with SF-539, 46.3 µM (inactive). The GI50 in the assay on SK-MEL-28 was > 100 µM (inactive); with SK-MEL-2, 29.4 µM (inactive); in the assay on SN12C, 59 µM (inactive); with SW-620 it was 26.5 µM (inactive); with TK-10 it was 37.4 µM (inactive); with UACC-257, > 100 µM (inactive).

Consider `N#Cc1nn(C2OC(COC(=O)c3ccccc3)C(OC(=O)c3ccccc3)C2OC(=O)c2ccccc2)c2nc[nH]c(=O)c12` (centres undefined), for which the GI50 was 44.3 µM (inactive) in the assay with ACHN; 34 µM (inactive) with HL-60; 90.2 µM (inactive) in the assay on HOP-62; 35.7 µM (inactive) in the assay on K562; 46.1 µM (inactive) with M14; 36.1 µM (inactive) in the assay on Malme-3M. The GI50 with NCI-H23 is 24.4 µM (inactive); in the assay with OVCAR-3 it was 46 µM (inactive); with RXF 393, 36.4 µM (inactive); with SF-295 it was 46.5 µM (inactive); with SF-539 it was 68.4 µM (inactive); in the assay with SK-MEL-28 it was 44.1 µM (inactive). Besides, the GI50 in the assay with SK-MEL-2 was 85.5 µM (inactive); in the assay with SK-OV-3 it was 5.57 µM (inactive); with SN12C, 77.4 µM (inactive); in the assay on SNB-19 it was 72.8 µM (inactive); in the assay on SW-620, 63.1 µM (inactive); with TK-10 it was > 100 µM (inactive). Besides, the GI50 in the assay with UACC-257 is > 100 µM (inactive).

As for `Sc1nc(S)nc(Oc2ccc(Cl)c(Cl)c2)n1`, the GI50 is 48.3 µM (inactive) in the assay with ACHN; 40 µM (inactive) in the assay with HL-60; 40 µM (inactive) in the assay on HOP-62; 16.5 µM (inactive) in the assay with K562; 18.1 µM (inactive) in the assay on LOX IMVI; 43.5 µM (inactive) in the assay with M14. The GI50 is > 47.2 µM (inactive) in the assay with Malme-3M; 27.2 µM (inactive) in the assay on NCI-H23; 29.6 µM (inactive) in the assay on OVCAR-3; < 0.01 µM (active) in the assay with RXF 393; 59 µM (inactive) with SF-295; > 44.8 µM (inactive) with SF-539. For the same molecule, the GI50 in the assay with SK-MEL-28 was > 54 µM (inactive); in the assay on SK-OV-3 it was > 51.5 µM (inactive); in the assay on SN12C, 37.9 µM (inactive); in the assay with SNB-19, > 65.2 µM (inactive); in the assay with SW-620, > 61.4 µM (inactive); with TK-10, > 66.1 µM (inactive). In addition, in the assay on UACC-257, the GI50 was 43.7 µM (inactive).

Consider `O=NN1CCCS1(=O)=O`, for which the GI50 in the assay on ACHN, in the assay with HL-60, in the assay on HOP-62, with K562, with LOX IMVI and in the assay on M14 was > 100 µM (inactive) in each case. In addition, the GI50 in the assay with Malme-3M, with NCI-H23, in the assay with OVCAR-3, in the assay with RXF 393, with SF-295 and in the assay on SF-539 was > 100 µM (inactive) throughout. In addition, the GI50 with SK-MEL-28, in the assay on SK-OV-3, with SN12C, in the assay on SNB-19, in the assay on SW-620 and in the assay with TK-10 was > 100 µM (inactive) in each case. The GI50 in the assay on UACC-257 was > 100 µM (inactive).
